Data published in patent US20260287592A1, “ANALYSIS METHOD AND ANALYSIS SYSTEM” (priority 2023, published 2026).

Tested on: HER3
Details: Type3: SN-38 0.01 μM, gefitinib 0.00 μM; SKBR-3 cells, 24 hours; anti-HER3 staining

CCc1c2c(nc3ccc(O)cc13)-c1cc3c(c(=O)n1C2)COC(=O)[C@]3(O)CC [SN-38, 7-ethyl-10-hydroxycamptothecin]
AVERAGE VALUE OF 10 WELLS FOR NUMBER OF BRIGHT SPOTS PER CELL: 12
